These results are taken from PMC5735092 (Scientific Reports, 2017).

One data set deals with IMPα/β1:C (Mus musculus, UniProt P52293). In kind it is binding.
Data set [1] has as its system C-GFP nuclear accumulation in HeLa cells. The data set is classed as cell-based.
Data set [2] deals with GFP-T-ag nuclear accumulation in HeLa cells. In kind it is cell-based.
In a further data set the test system is TC83-WT. The data set is classed as cell-based, Venezuelan equine encephalitis virus.
The test system of data set [3] is IMPα/β1 binding to HIV-1 integrase. The conditions noted are these: cited from earlier work.
In a further data set the test system is HIV-1. The conditions noted are these: cited from earlier work.
The subject of a further data set is VEEV. The following applies: cited from earlier work.
Data set [4] deals with VEEV C localization in infected Vero cells. The data set is classed as cell-based.
The test system of another data set is VEEV-TC83luc. The data set is classed as cell-based, Venezuelan equine encephalitis virus.
Data set [5] relates to C-GFP nuclear import in HeLa cells. In kind it is cell-based.

The term IC50 denotes the concentration that gives 50% inhibition. Low readings indicate greater potency in that assay, high ones weaker potency in that assay. What is called EC50 is the concentration giving half of the maximal effect. The low end stands for greater potency, the high end for weaker potency. What is called CC50 is the concentration at which the toxic effect on the cells reaches its halfway point. Higher therefore signals lower toxicity to the cells.

On IMPα/β1:C, `O=C(c1cc(C(=O)N2CCN(c3cccc(Cl)c3)CC2)cc(C(=O)N2CCN(c3cccc(Cl)c3)CC2)c1)N1CCN(c2cccc(Cl)c2)CC1` [AK-968/15362127] displayed an IC50 of 32 ± 4.6 µM.
In the case of Ivermectin, the “nuclear accumulation of C-GFP” value in [1] is reported as “reduced nuclear accumulation of both constructs”. Besides, the “nuclear accumulation of GFP-T-ag” value in data set [2] is “reduced nuclear accumulation of both constructs”. Also, the “titer of wild-type TC83” value in the data set with TC83-WT was “reduced the titer to a lesser extent”. Also, in data set [3], the “inhibition of IMPα/β1 binding to HIV-1 integrase” value is reported as “inhibitors of IMPα/β1 binding to HIV-1 integrase”. For the same compound, the anti-HIV-1 activity result in the data set with HIV-1 is “anti-HIV-1 activity”. The “activity against VEEV” value with VEEV was “active against VEEV”.
Turning to `CC#C[C@]1(O)CC[C@H]2[C@@H]3CCC4=CC(=O)CCC4=C3[C@@H](c3ccc(N(C)C)cc3)C[C@@]21C` [Mifepristone], the “nuclear C staining in infected cells” value in [4] is reported as “reduced nuclear C staining”. For the same compound, the “titer of wild-type TC83” value in the data set on TC83-WT is recorded as “significantly reduced the titer”. Besides, the “inhibition of IMPα/β1 binding to HIV-1 integrase” value in data set [3] was “inhibitors of IMPα/β1 binding to HIV-1 integrase”. Further, the anti-HIV-1 activity entry in the data set on HIV-1 is listed as “anti-HIV-1 activity”. In addition, the “activity against VEEV” value in the data set with VEEV is given as “active against VEEV”.
`CC(=O)Nc1ccc(S(=O)(=O)Nc2ccc(C3(c4ccc(NS(=O)(=O)c5ccc(NC(C)=O)cc5)cc4)c4ccccc4-c4ccccc43)cc2)cc1` [AN-329/40863801] showed a concentration giving a half-maximal response (EC50) with VEEV-TC83luc greater than 50 µM. For the same compound, in data set [5], the “initial rate of C nuclear import” value is listed as “significantly reduced” and the “maximal recovery of nuclear fluorescence (Fn(rec) max), lower than in DMSO alone treated cells” value is recorded as roughly 30%. Besides, in data set [1], the “nuclear accumulation of C-GFP” value is recorded as “no significant effect”. The “nuclear accumulation of GFP-T-ag” value in [2] is reported as “no significant effect”. Besides, the cytotoxic concentration (CC50) in the data set on Vero cells was greater than 100 µM.
